Series [1] deals with human umbilical vein endothelial cells (HUVEC). As to the kind of experiment: Nitric oxide production (nitrite+nitrate) in NAS-treated HUVEC. The note with it: for NO production (nitrite+nitrate): 5-22 hours treatment; for effect (response) relative to that of free BH4: 5 to 22 hours exposure. In kind it is cell-based. On the procedure:
Cultured human umbilical vein endothelial cells (HUVEC) were pretreated with 3 mM N-acetylserotonin (NAS), an inhibitor of the enzyme sepiapterin reductase. Inhibition of this pathway typically results in loss of endogenous BH4, depressing the endogenous eNOS activity far below normal and provides an assay to test for restoration of eNOS activity.
Thus, subconfluent HUVECs were seeded in a 24-well plate and grown overnight in EGM2 medium (full growth medium). The next morning, fresh medium was added to the cells (300 μL/well), 3 mM N-acetylserotonin (NAS), an inhibitor of the enzyme sepiapterin reductase (a member of the synthesis pathway for endogenous BH4) was added to the cells to decrease the endogenous BH4 levels. After an incubation of 1.5 hours, 50, 100, or […] BH4 or compound of Example 5, Example 6, Example 7, or Example 9 were added to the cells. The cells were allowed to react with the BH4 or the compound of Example 5, Example 7, or Example 9 for 5-22 hours. The production of NO was then measured as changes in total (nitrite+nitrate) by the Griess reaction subsequent to nitrate reductase treatment. 90 μL of reaction mixture (25 mM Tris-HCL, pH7.4, 1 μM FAD, 1 μM FMN, 100 μM L-Arginin 2.5 mM CaCl2, 1 mM NADPH, 0.04 mg/ml Calmodulin) was mixed with 5 μl of eNOS (15 units/ml) and 5 μl of BH4 or BH4 analogs (1, 10, 100 μM), followed by incubation in a 37° C. water bath for 90 minutes. Then 100 μl of water and 20 μl of the nitrite fluorescent probe DAN (2,3-diaminonaphthalene, 316 μM) were added to each reaction and incubated at room temperature for 10 minutes. The dye DAN reacts with nitrite to yield the fluorescent product naphthotriazole. The reaction was then stopped by adding 10 μl of NaOH (2.8 M), and the fluorescence of the samples was read using excitation frequency 375 nm and emission frequency 415 nm. The percentage of nitrite+nitrate with BH4 or compound of Example 5, Example 7, or Example 9 is shown in FIG. 17 (after 5 hours); FIG. 18 (after 17 hours); and FIG. 19 (after 22 hours). The results for Example 6 are shown in FIG. 20 (after 5 hours) and FIG. 21 (after 20 hours).

The nature of series [2]: Stability in simulated gastric fluid. It is filed as in vitro ADME. The note with it: over a 60 minute period, compound remaining. On the procedure:
(§1) The stability of various compounds as disclosed herein was tested in human and rat and in simulated gastric fluid. Each compound was tested over an hour period for concentration of the compound remaining at each time point. The results are shown in FIGS. 3 (human plasma stability), 4 (rat plasma stability), and 5 (simulated gastric fluid stability) for the compounds of Example 2, 3, 4, and 20.

Another series in a line: Stability in rat plasma. It is filed as in vitro ADME. The note with it: over a 60 minute period, compound remaining. On the procedure:
as §1

Series [3] is described as follows: Stability in human plasma. The note with it: over a 60 minute period, compound remaining. In kind it is in vitro ADME. On the procedure: as §1
The nature of series [4]: Pharmacokinetics and bioavailability, single intravenous or oral doses, partial Latin square crossover. In kind it is in vivo, male cynomolgus monkeys. The note with it: male, cynomolgus monkey, plasma; intravenous; title 5 mg/kg, text 2 mg/kg; n=6.
The subject of series [5] is Spontaneously Hypertensive rats (SHR). As to the kind of experiment: Anti-hypertensive effect, tail-cuff systolic blood pressure in SHR. It is filed as in vivo, rat. On the procedure: This study was to determine if the BH4 analogs have a similar hypotensive effect and to determine the steady state pharmacokinetics (PK) profiles of plasma BH4 concentrations.
Male Wistar-Kyoto (WKY) rats and SHR rats (Elevage Janvier, France, 7 weeks old) were housed seven days prior to the beginning of experiments with free access to standard chow and water and maintained on an inversed 12 h dark/light cycle (10:00/22:00). After a one week acclimation period, the animals were trained to the tail-cuff system during one week (3 sessions). The following week, two baseline measurements of blood pressure were performed.
The rats (10 weeks old) then received respective treatments of water, vehicle, 2, 10, or 30 mg/kg/day of BH4 analog (Example 5, Val-BH4) or 100 mg/kg/day BH4 by oral gavage (8 mL/kg, dissolved in 100 μM ascorbic acid) performed once a day during 21 days of treatment. The doses of BH4 analog were prepared as mg/kg equivalents of BH4 (calculated using BH4 and BH4 analog 2HCl molecular weights). Body weight was monitored 3 times per week and the most recent body weight was used to adjust drug and vehicle daily intake. Seven experimental groups of rats were evaluated: Group 1—normotensive WKY rats and water gavage; Group 2—hypertensive SHR rats and water gavage; Group 3—hypertensive SHR rats and vehicle gavage; Group 4—hypertensive SHR rats and BH4 100 mg/kg/day gavage; Group 5—hypertensive SHR rats and BH4 analog 2 mg/kg/day gavage; Group 6—hypertensive SHR rats and BH4 analog 10 mg/kg/day gavage; Group 7—hypertensive SHR rats and 30 mg/kg/day BH4 analog gavage. To account for animal loss or animal disqualification during experimental handling, 10 rats were used in each group, with the expectation to obtain interpretable results for at least 8. Systolic blood pressure (SBP) and heart rate (HR) were measured twice weekly during the 3-week treatment period.
Systolic blood pressure (SBP) and heart rate (HR) were measured using the tail-cuff method, twice before the beginning of the treatment and twice weekly during the 3 week treatment period (6 measurements during the treatment period). Rats were placed in a plastic restraint and warmed to […]. A pneumatic pulse sensor was attached to the tail. After cuff inflation, SBP was measured and HR was determined by counting pulse numbers per minute. Data for each rat was taken an average of at least 4 stable readings. At least 10 cuff inflations were performed for each BP measurement.

Series [6] is described as follows: Pharmacokinetics and bioavailability, single intravenous or oral doses, partial Latin square crossover. In kind it is in vivo, male cynomolgus monkeys. The note with it: oral 40 mg/kg, n=6. On the procedure: This study was to determine the pharmacokinetics and relative bioavailability of BH4 when given as parent BH4 or an analog of BH4 to male cynomolgus monkeys as single intravenous or oral doses in a partial Latin square crossover design.
Six, male, non-naïve cynomolgus monkeys were fasted overnight prior to dosing through approximately 4 hours postdose. Individual doses were calculated based on body weights recorded on each day of dose administration. Five experimental groups of monkeys were evaluated using a partial Latin square crossover design: Group 1-2 mg/kg BH4 by IV; Group 2-40 mg/kg BH4 by oral gavage; Group 3-2 mg/kg BH4 analog by IV; Group 4-5 mg/kg BH4 analog by oral gavage; Group 5-20 mg/kg BH4 analog by oral gavage. The doses of BH4 analog were prepared as mg/kg equivalents of BH4 (calculated using BH4 and BH4 analog 2HCl molecular weights). The partial Latin square crossover design was used to minimize dose sequence effect on interanimal variability for statistical purposes. The monkeys received their respective dose of BH4 intravenously (2 mL/kg, dissolved in 100 μM ascorbic acid and 5% mannitol in sterile water for injection, SWFI), Example 5 intravenously (2 mL/kg, dissolved in 100 μM ascorbic acid and 5% mannitol in citrate buffer, pH 3) or BH4 or Example 5 by oral gavage (4 mL/kg, dissolved in 100 μM ascorbic acid in SWFI). Prior to use, all intravenous dose formulations were filtered into the final dosing container using a 0.22-micron syringe filter (Millex GS or GV; Millipore).
For intravenous administration, blood (approximately 1 mL) was collected from each animal predose and at 0.083, 0.25, 0.5, 1, 2, 3, 4, 6, 8, 12, 18, and 24 hours postdose. For oral administration, blood (approximately 1 mL) was collected from each animal predose and at 0.25, 0.5, 1, 2, 3, 4, 6, 8, 12, 18, and 24 hours postdose. Blood was collected into tubes containing K2-EDTA anticoagulant, which was maintained in chilled condition, and centrifuged to obtain plasma. Centrifugation began within 30 minutes of collection. Three, 100-μL aliquots of each plasma sample were promptly transferred following centrifugation into individual tubes containing 0.1% (w/v) dithioerythritol (DTE) for storage. Once the plasma aliquot was added, each tube was vortexed briefly to mix then immediately placed on dry ice.

In the next series the target is eNOS (Homo sapiens, UniProt P29474). Kind of series: Cell-free eNOS activity assay reconstituted from purified components. In kind it is biochemical. The note with it: 1, 10, 100 μM, 90 minutes at 37° C., nitrite by DAN fluorescence. On the procedure: Also tested was the effect of BH4 analogs compared to free BH4 on stimulation of eNOS activity in a cell-free assay system reconstituted from purified components. 90 μL of reaction mixture (25 mM Tris-HCL, pH7.4, 1 μM FAD, 1 μM FMN, 100 μM L-Arginine, 2.5 mM CaCl2, 1 mM NADPH, 0.04 mg/ml Calmodulin) was mixed with 5 μl of eNOS (15 units/ml) and 5 μl of BH4 or BH4 analogs (1, 10, 100 μM), followed by incubation in a 37° C. water bath for 90 minutes. Then 100 μl of water and 20 μl of the nitrite fluorescent probe DAN (2,3-diaminonaphthalene, 316 μM) were added to each reaction and incubated at room temperature for 10 minutes. The dye DAN reacts with nitrite to yield the fluorescent product naphthotriazole. The reaction was then stopped by adding 10 μl of NaOH (2.8 M), and the fluorescence of the samples was read using excitation frequency 375 nm and emission frequency 415 nm.

Where [7] appears, read: male, cynomolgus monkey, plasma.

Where a name gives a salt, the structure may show the parent alone.

The source of these data is patent US7601717B2, “Pterin analogs” (BioMarin Pharmaceutical Inc., priority 2008, dated 2009).

Broadly, the AUC(0-inf) is total exposure, with the tail of the curve extrapolated. What is called AUC(0-t) is the area under the concentration-time curve up to a stated or last time point. Read a low AUC(0-t) as less exposure. The term Cmax denotes the peak of the concentration-time curve. The term Tmax denotes the time at which the peak concentration occurs. What is called bioavailability is dose-corrected exposure relative to a reference, in per cent. For orientation: half-life means the time needed for the level to fall by half in the phase considered. A low value points to rapid decline.

For the compound `CCC(C)[C@H](N)C(=O)O[C@@H](C)[C@H](O)[C@H]1CNc2nc(N)[nH]c(=O)c2N1` (stereo in doubt) [Example 6, 2-Amino-3-methyl-pentanoic acid 2-(2-amino-4-oxo-3,4,5,6,7,8-hexahydro-pteridin-6-yl)-2-hydroxy-1-methyl-ethyl ester], in series [1], the “NO production (nitrite+nitrate)” value is given as “increased NO production in a dose-dependent manner” and the “effect (response) relative to that of free BH4” value is listed as “similar, if slightly reduced, effect”.

`C[C@H](O)[C@H](O)[C@H]1CNc2nc(N)[nH]c(=O)c2N1C(=O)OCc1ccccc1` (stereo in doubt) [Example 20, 2-Amino-6-(1,2-dihydroxy-propyl)-4-oxo-4,6,7,8-tetrahydro-1H-pteridine-5-carboxylic acid benzyl ester]: the “stability in simulated gastric fluid” value in series [2] is given as “high level of stability”. Further, in the series “Stability in rat plasma”, the “stability in rat plasma” value was “high level of stability”. Also, the “stability in human plasma” value in series [3] was “high level of stability”.

On to `C[C@H](O)[C@H](O)[C@H]1CNc2nc(N)[nH]c(=O)c2N1` [BH4, Tetrahydrobiopterin, reference compound], for which, in series [4], the AUC(0-inf) amounted to 6.96 µM·h, the AUC(0-t) was 6.76 µM·h, the Cmax is 7.05 µM and the Tmax was 6.6 min. For the same compound, in series [5] (SHR, 100 mg/kg/day oral gavage, after 3 weeks, vs vehicle), the “lowering of systolic blood pressure (SBP)” value is on record as “about 8.4 mmHg”. For the same compound, the “blood pressure of SHR” value in series [5] (previous studies, 10, 100, and 500 mg/kg/day, two weeks of oral administration) is given as “reduced the blood pressure”. Also, in series [6] (male, cynomolgus monkey, plasma, po, 40 mg/kg, based on 6R-BH4 IV, read-out: Absolute Bioavailability, BH4), the bioavailability was determined as 9.8%. Moreover, in series [6] (setting [7]), the AUC(0-inf) was 13.4 µM·h, the AUC(0-t) was determined as 11.9 µM·h, the Cmax came to 2.33 µM and the Tmax was 3.7 h. The same compound showed a half-life in series [6] (setting [7]) of 5.9 h. Moreover, in series [6] (based on 6R-BH4 IV, 40 mg/kg), the “Absolute Bioavailability, BH4” value is given as 9.2 (4.2) %. For the same compound, the “potentiation of eNOS activity” value on eNOS is given as “did potentiate eNOS activity in a dose-dependent manner”.

`CC(=O)O[C@@H]([C@H](C)OC(C)=O)[C@H]1CNc2nc(N)[nH]c(=O)c2N1C(C)=O` [Example 2, Acetic acid 2-acetoxy-1-(5-acetyl-2-amino-4-oxo-3,4,5,6,7,8-hexahydro-pteridin-6-yl)-propyl ester]: the “stability in simulated gastric fluid” value in series [2] is on record as “high level of stability”. In addition, in the series “Stability in rat plasma”, the “stability in rat plasma” value is on record as “high level of stability”. For the same compound, the “stability in human plasma” value in series [3] is recorded as “high level of stability”.

As for `C[C@@H](O)[C@@H](O)[C@H]1CNc2nc(N)[nH]c(=O)c2N1` [Example 6S-BH4, reference compound], the “potentiation of eNOS activity” value at eNOS is given as “did not significantly potentiate eNOS activity”.

Regarding `C[C@H](OC(=O)[C@@H](N)CCCCN)[C@H](O)[C@H]1CNc2nc(N)[nH]c(=O)c2N1` [Example 7, 2,6-Diamino-hexanoic acid 2-(2-amino-4-oxo-3,4,5,6,7,8-hexahydro-pteridin-6-yl)-2-hydroxy-1-methyl-ethyl ester tri-hydrochloride], in series [1], the “NO production (nitrite+nitrate)” value is listed as “increased NO production in a dose-dependent manner” and the “effect (response) relative to that of free BH4” value is “similar, if slightly reduced, effect”. The “potentiation of eNOS activity” value on eNOS is “slight effect on eNOS activity”.

For the compound `C[C@H](OC(=O)[C@@H]1CCCN1)[C@H](O)[C@H]1CNc2nc(N)[nH]c(=O)c2N1` [Example 9, Pyrrolidine-2-carboxylic acid 2-(2-amino-4-oxo-3,4,5,6,7,8-hexahydro-pteridin-6-yl)-2-hydroxy-1-methyl-ethyl ester dihydrochloride], in series [1], the “NO production (nitrite+nitrate)” value is on record as “increased NO production in a dose-dependent manner” and the “effect (response) relative to that of free BH4” value is given as “similar, if slightly reduced, effect”. The “potentiation of eNOS activity” value at eNOS is “slight effect on eNOS activity”.
